Test results published in patent publication US10203334B2, “Methods and compositions related to nucleic acid binding assays” (Nubad, LLC, priority 2012, dated 2019).

Tested on: d(CCCCGGGG)2
Assay: ITC derived binding constant
Details: 50 mM KCl, 10 mM SC, 0.5 mM EDTA (pH 6.0) at 25° C.
Description: Determination of the pKa was done using chemometric analysis of the absorption profiles at various pH values of the covalently attached fluorescein moiety (Kubista, M., et al., (1993) Anal. Chem. 65, 994-998, Kubista, M., et al., (1995) Anal. Chim. Acta. 302, 121-125.2, 3). The pH dependent absorption profile of free fluorescein-neomycin was first analyzed to determine its pKa. […] The electrostatic potential (P) calculated from the shift in pKa, and the ITC derived binding constant (K). Electrostatic potential experiments performed in 100 mM NaCl, 10 mM SC, 0.5 mM EDTA at 25° C. ITC experiments performed in 50 mM KCl, 10 mM SC, 0.5 mM EDTA (pH 6.0) at 25° C. […] Fluorescein-neomycin concentration was 10 μM. Table 1 represents the pKa values determined from the inflection point of the pH dependent absorbance scans of free fluorescein-neomycin, fluorescein-neomycin with one molar equivalent d(CCCCGGGG)2 and d(GGGGCCCC)2. The electrostatic potential (Y) calculated from the shift in pKa, and the ITC derived binding constant (K).

## NCC1O[C@H](OC2C(O)C(OC3C(O)[C@H](N)CC(N)[C@H]3O[C@H]3OC(CN)[C@@H](O)C(O)C3N)O[C@@H]2CSCCNC(=O)CCSCC(=O)Nc2ccc(-c3c4ccc(=O)cc-4oc4cc(O)ccc34)c(C(=O)O)c2)C(N)C(O)[C@@H]1O (stereo partly shown) [F-neo (42a), Neomycin-Fluorescein Conjugate]
  K (M^−1) × 10^5: 7.97 ± 10.9 (M^−1) × 10^5
